In ChEMBL document CHEMBL2169750, “Imidazo-benzothiazoles a potent microRNA modulator involved in cell proliferation” (Bioorg Med Chem Lett, 2012):
Calls of active or inactive are those of the source. The calls are words filed in the database; no cut-off is given here.

Tests used:
Drosophila melanogaster [1] = assay: Toxicity in Drosophila melanogaster third instar larvae assessed as change in larvae development at 40 uM administered through feeding measured after 5 days; type: organism-based; conditions: in vivo, po, 120 h
Drosophila melanogaster [2] = assay: Toxicity in Drosophila melanogaster third instar larvae assessed as change in fecundity at 40 uM administered through feeding measured after 5 days; type: organism-based; conditions: in vivo, po, 120 h
COLO 205 [3] = assay: Cytotoxicity against human COLO205 cells assessed as reduction in cell viability at 0.5 to 4 uM after 48 hrs by MTT assay; type: functional, cell-based
Drosophila melanogaster [4] = assay: Downregulation of miR-14 expression in Drosophila melanogaster third instar larval wing imaginal disc assessed as increase in EGFP expression at 40 uM administered through feeding measured after 5 days by confocal microscopy; type: functional, organism-based
Drosophila melanogaster [5] = assay: Downregulation of miR-13a expression in Drosophila melanogaster third instar larval wing imaginal disc assessed as increase in EGFP expression at 40 uM administered through feeding measured after 5 days by confocal microscopy; type: functional, organism-based
Drosophila melanogaster [6] = assay: Downregulation of bantam microRNA expression in Drosophila melanogaster third instar larval wing imaginal disc assessed as increase in EGFP expression at 40 uM administered through feeding measured after 5 days by confocal microscopy; type: functional, organism-based
COLO 205 [7] = assay: Downregulation of HDAC-6 protein expression in human COLO205 cells at 4 uM after 24 hrs by Western blot analysis; type: functional, cell-based
COLO 205 [8] = assay: Downregulation of HDAC-3 protein expression in human COLO205 cells at 4 uM after 24 hrs by Western blot analysis; type: functional, cell-based
COLO 205 [9] = assay: Cell cycle arrest in human COLO205 cells assessed as accumulation at G2/M phase at 4 uM after 24 hrs by propidium iodide staining-based flow cytometry (reference value: 22%); type: functional
COLO 205 [10] = assay: Cell cycle arrest in human COLO205 cells assessed as accumulation at S phase at 4 uM after 24 hrs by propidium iodide staining-based flow cytometry (reference value: 7%); type: functional
COLO 205 [11] = assay: Cell cycle arrest in human COLO205 cells assessed as accumulation at G1 phase at 4 uM after 24 hrs by propidium iodide staining-based flow cytometry (reference value: 71%); type: functional
Drosophila melanogaster [12] = assay: Upregulation of Hid expression in Drosophila melanogaster third instar larval wing imaginal disc at 10 to 100 uM administered through feeding measured after 5 days by semi quantitative RT-PCR analysis relative to control; type: functional
Drosophila melanogaster [13] = assay: Effect on Ago-1 expression in Drosophila melanogaster third instar larval wing imaginal disc at 10 to 100 uM administered through feeding measured after 5 days by semi quantitative RT-PCR analysis; type: functional, organism-based
Drosophila melanogaster [14] = assay: Downregulation of Dicer-1 expression in Drosophila melanogaster third instar larval wing imaginal disc at 10 to 100 uM administered through feeding measured after 5 days by semi quantitative RT-PCR analysis relative to control; type: functional
Drosophila melanogaster [15] = assay: Downregulation of Pasha expression in Drosophila melanogaster third instar larval wing imaginal disc at 10 to 100 uM administered through feeding measured after 5 days by semi quantitative RT-PCR analysis relative to control; type: functional
Drosophila melanogaster [16] = assay: Downregulation of Drosha expression in Drosophila melanogaster third instar larval wing imaginal disc at 10 to 100 uM administered through feeding measured after 5 days by semi quantitative RT-PCR analysis relative to control; type: functional
Drosophila melanogaster [17] = assay: Downregulation of miR-13a expression in Drosophila melanogaster third instar larval wing imaginal disc assessed as increase in EGFP expression at 40 uM administered through feeding measured after 5 days by confocal microscopy relative to control; type: functional
Drosophila melanogaster [18] = assay: Downregulation of bantam microRNA expression in Drosophila melanogaster third instar larval wing imaginal disc assessed as increase in EGFP expression at 40 uM administered through feeding measured after 5 days by confocal microscopy relative to control; type: functional
COLO 205 [19] = assay: Cytotoxicity against human COLO205 cells assessed as decrease in AGO-2 expression at 4 uM after 24 hrs by Western blot analysis; type: functional, cell-based
COLO 205 [20] = assay: Cytotoxicity against human COLO205 cells assessed as decrease in AGO-1 expression at 4 uM after 24 hrs by Western blot analysis; type: functional, cell-based
COLO 205 [21] = assay: Cytotoxicity against human COLO205 cells assessed as decrease in miR-542-5p level by RT-PCR analysis; type: functional, cell-based
COLO 205 [22] = assay: Cytotoxicity against human COLO205 cells assessed as increase in miR-145 level by RT-PCR analysis; type: functional, cell-based
COLO 205 [23] = assay: Cytotoxicity against human COLO205 cells assessed as miR-450 expression by RT-PCR analysis; type: functional, cell-based
COLO 205 [24] = assay: Induction of apoptosis in human COLO205 cells assessed as chromatin condensation at 4 uM after 24 hrs by Hoechst 33342-staining based confocal microscopy; type: functional, cell-based
COLO 205 [25] = assay: Induction of apoptosis in human COLO205 cells assessed as cellular blebbing at 4 uM after 24 hrs by Hoechst 33342-staining based confocal microscopy; type: functional, cell-based
COLO 205 [26] = assay: Induction of apoptosis in human COLO205 cells assessed as cellular shrinkage at 4 uM after 24 hrs by Hoechst 33342-staining based confocal microscopy; type: functional, cell-based
COLO 205 [27] = assay: Induction of apoptosis in human COLO205 cells assessed as DNA fragmentation at 4 uM by tunel assay; type: functional, cell-based
COLO 205 [28] = assay: Induction of apoptosis in human COLO205 cells assessed as caspase 3 expression at 4 uM after 24 hrs by fluorimetric assay in presence of Z-DEVD-FMK; type: functional, cell-based
COLO 205 [29] = assay: Induction of apoptosis in human COLO205 cells assessed as caspase 9 expression at 4 uM after 24 hrs by fluorimetric assay in presence of Z-LEHD-FMK; type: functional, cell-based
COLO 205 [30] = assay: Induction of apoptosis in human COLO205 cells assessed as increase in caspase 3 expression at 4 uM after 24 hrs by fluorimetric assay relative to control; type: functional
COLO 205 [31] = assay: Induction of apoptosis in human COLO205 cells assessed as increase in caspase 9 expression at 4 uM after 24 hrs by fluorimetric assay relative to control; type: functional
COLO 205 [32] = assay: Cytotoxicity against human COLO205 cells assessed as Dicer-1 expression at 4 uM after 24 hrs by Western blot analysis; type: functional, cell-based
Drosophila melanogaster [33] = assay: Downregulation of HDAC-1 mRNA expression in Drosophila melanogaster third instar larval wing imaginal disc at 10 to 100 uM administered through feeding measured after 5 days by semi quantitative RT-PCR analysis; type: functional, organism-based
Drosophila melanogaster [34] = assay: Downregulation of Sir2 mRNA expression in Drosophila melanogaster third instar larval wing imaginal disc at 10 to 100 uM administered through feeding measured after 5 days by semi quantitative RT-PCR analysis; type: functional, organism-based
Drosophila melanogaster [35] = assay: Downregulation of HDAC6 mRNA expression in Drosophila melanogaster third instar larval wing imaginal disc at 10 to 100 uM administered through feeding measured after 5 days by semi quantitative RT-PCR analysis; type: functional, organism-based
Drosophila melanogaster [36] = assay: Downregulation of HDAC4 mRNA expression in Drosophila melanogaster third instar larval wing imaginal disc at 10 to 100 uM administered through feeding measured after 5 days by semi quantitative RT-PCR analysis; type: functional, organism-based
Drosophila melanogaster [37] = assay: Downregulation of HDAC3 mRNA expression in Drosophila melanogaster third instar larval wing imaginal disc at 10 to 100 uM administered through feeding measured after 5 days by semi quantitative RT-PCR analysis; type: functional, organism-based
Drosophila melanogaster [38] = assay: Induction of apoptosis in Drosophila melanogaster third instar larval wing imaginal disc assessed as Dcp-1 activation at 10 to 100 uM administered through feeding measured after 5 days by semi quantitative RT-PCR analysis relative to control; type: functional
Drosophila melanogaster [39] = assay: Induction of apoptosis in Drosophila melanogaster third instar larval wing imaginal disc assessed as Dronc activation at 10 to 100 uM administered through feeding measured after 5 days by semi quantitative RT-PCR analysis relative to control; type: functional
Drosophila melanogaster [40] = assay: Downregulation of DIAP1 expression in Drosophila melanogaster third instar larval wing imaginal disc at 10 to 100 uM administered through feeding measured after 5 days by semi quantitative RT-PCR analysis; type: functional
Drosophila melanogaster [41] = assay: Upregulation of Grim expression in Drosophila melanogaster third instar larval wing imaginal disc at 10 to 100 uM administered through feeding measured after 5 days by semi quantitative RT-PCR analysis relative to control; type: functional
Drosophila melanogaster [42] = assay: Upregulation of Reaper expression in Drosophila melanogaster third instar larval wing imaginal disc at 10 to 100 uM administered through feeding measured after 5 days by semi quantitative RT-PCR analysis relative to control; type: functional

`Fc1ccc2c(c1)sc1nc(-c3ccccc3)c(CN3CCCC3)n12` was tested, and the Activity (Drosophila melanogaster [1]) was “Non-toxic”, the Activity (Drosophila melanogaster [2]) was “Non-toxic” and the Activity (COLO 205 [3]) was “Active”.
With `CCOc1ccc2c(c1)sc1nc(-c3ccc(Cl)cc3)c(CN3CCN(c4ccccn4)CC3)n12` the Activity (Drosophila melanogaster [4]) was “inactive”, the Activity (Drosophila melanogaster [5]) was “Active” and the Activity (Drosophila melanogaster [6]) was “Active”. For the same compound, the Activity (Drosophila melanogaster [1]) was “Non-toxic”, the Activity (Drosophila melanogaster [2]) was “Non-toxic” and the Activity (COLO 205 [3]) was “Active”.
With `c1ccc(-c2nc3sc4ccccc4n3c2CN2CCCC2)cc1` the Activity (Drosophila melanogaster [1]) was “Non-toxic”, the Activity (Drosophila melanogaster [2]) was “Non-toxic” and the Activity (COLO 205 [3]) was “Active”.
In the case of `CCOc1ccc2c(c1)sc1nc(-c3ccccc3)c(CN3CCCC3)n12`, the Activity (Drosophila melanogaster [1]) is reported as “Non-toxic”, the Activity (Drosophila melanogaster [2]) is reported as “Non-toxic” and the Activity (COLO 205 [3]) is reported as “Active”.
`CCN(CC)CCOc1cccc(-c2cn3c(n2)sc2ccccc23)c1.Cl.Cl` was tested, and the Activity (COLO 205 [7]) was “Active”, the Activity (COLO 205 [8]) was “Active” and the Activity (COLO 205 [9]) was 73%. It also gave an Activity (COLO 205 [10]) of 5% and an Activity (COLO 205 [11]) of 22%.
For `Clc1ccc(-c2nc3sc4ccccc4n3c2CN2CCN(c3ccccn3)CC2)cc1`, the “fold change (FC)” value (Drosophila melanogaster [12]) was 4, the Activity (Drosophila melanogaster [13]) was “inactive” and the “fold change (FC)” value (Drosophila melanogaster [14]) was 3. For the same compound, the “fold change (FC)” value (Drosophila melanogaster [15]) was 2, the “fold change (FC)” value (Drosophila melanogaster [16]) was 4 and the “fold change (FC)” value (Drosophila melanogaster [17]) was 3. The “fold change (FC)” value (Drosophila melanogaster [18]) was 5, the Activity (Drosophila melanogaster [4]) was “inactive” and the Activity (Drosophila melanogaster [5]) was “Active”. For the same compound, the Activity (Drosophila melanogaster [6]) was “Active”, the Activity (Drosophila melanogaster [1]) was “Non-toxic” and the Activity (Drosophila melanogaster [2]) was “Non-toxic”. The Activity (COLO 205 [7]) was “Active”, the Activity (COLO 205 [8]) was “Active” and the Activity (COLO 205 [19]) was “Active”. For the same compound, the Activity (COLO 205 [20]) was “Active”, the Activity (COLO 205 [21]) was “Active” and the Activity (COLO 205 [22]) was “Active”. For the same compound, the Activity (COLO 205 [23]) was “inactive”, the Activity (COLO 205 [24]) was “Active” and the Activity (COLO 205 [25]) was “Active”. The Activity (COLO 205 [26]) was “Active”, the Activity (COLO 205 [27]) was “Active” and the Activity (COLO 205 [28]) was “inactive”. For the same compound, the Activity (COLO 205 [29]) was “inactive”, the “fold change (FC)” value (COLO 205 [30]) was 3 and the “fold change (FC)” value (COLO 205 [31]) was 2.5. The Activity (COLO 205 [9]) was 15%, the Activity (COLO 205 [10]) was 5% and the Activity (COLO 205 [32]) was “inactive”. For the same compound, the Activity (COLO 205 [3]) was “Active”, the Activity (COLO 205 [11]) was 80% and the Activity (Drosophila melanogaster [33]) was “inactive”. The Activity (Drosophila melanogaster [34]) was “Active”, the Activity (Drosophila melanogaster [35]) was “Active” and the Activity (Drosophila melanogaster [36]) was “Active”. The Activity (Drosophila melanogaster [37]) was “Active”, the “fold change (FC)” value (Drosophila melanogaster [38]) was 3 and the “fold change (FC)” value (Drosophila melanogaster [39]) was 3. For the same compound, the “fold change (FC)” value (Drosophila melanogaster [40]) was 5, the “fold change (FC)” value (Drosophila melanogaster [41]) was 3 and the “fold change (FC)” value (Drosophila melanogaster [42]) was 2.5.
With `Cc1ccc2c(c1)sc1nc(-c3ccccc3)c(CN3CCCC3)n12` the Activity (Drosophila melanogaster [1]) was “Non-toxic”, the Activity (Drosophila melanogaster [2]) was “Non-toxic” and the Activity (COLO 205 [3]) was “Active”.
`Clc1ccc(-c2nc3sc4ccccc4n3c2CN2CCCC2)cc1` was tested, and the Activity (Drosophila melanogaster [1]) was “Non-toxic”, the Activity (Drosophila melanogaster [2]) was “Non-toxic” and the Activity (COLO 205 [3]) was “Active”.
